Data taken from patent publication US20110245242A1, “Heterocyclically Substituted Anilinopyrimides” (Bayer CropScience AG, priority 2008, published 2011).

Experiment: log P by LC-MS, method [b], acid range pH 2.7
Type: physicochemical
Settings: pH 2.7
Procedure: The log P values were measured in accordance with EEC Directive 79/831 Annex V.A8 by HPLC (High Performance Liquid Chromatography) on reversed-phase columns (C 18) using the methods below:
[b] The LC-MS determination in the acid range was carried out at pH 2.7 using the mobile phases 0.1% aqueous formic acid and acetonitrile (contains 0.1% formic acid)
linear gradient from 10% acetonitrile to 95% acetonitrile.

log p	Structure (SMILES)
1.54[b]	COCC(C)Nc1nc(Nc2ccc(N3C(=O)OCC3C)cc2)ncc1Cl (stereo not drawn) [Example 3]
1.61[b]	COCC(C)Nc1nc(Nc2ccc(N3C(=O)OCC3C)cc2)ncc1Br (stereo not drawn) [Example 4]
1.46[b]	COCC(C)Nc1nc(Nc2ccc(N3CCOC3=O)cc2)ncc1Cl (stereo not drawn) [Example 12]
2.17[b]	O=c1ccccn1-c1cccc(Nc2ncc(Cl)c(NC3CCC3)n2)c1 [Example 16]
1.83[b]	O=C1OCCN1c1ccc(Nc2ncc(Cl)c(NCC(F)(F)F)n2)cc1 [Example 23]
1.99[b]	COCC(C)Nc1nc(Nc2cccc(N3CCCC3=O)c2)ncc1C#N (stereo not drawn) [Example 24]
2.07[b]	CC1(C)CC(=O)N(c2cccc(Nc3ncc(Cl)c(NC4CCC4)n3)c2)C1=O [Example 29]
2.24[b]	CCC1COC(=O)N1c1cccc(Nc2ncc(Br)c(NC3CCC3)n2)c1 (stereo not drawn) [Example 34]
2.09[b]	CCC1COC(=O)N1c1cccc(Nc2ncc(Cl)c(NC3CCC3)n2)c1 (stereo not drawn) [Example 35]
1.92[b]	O=C1CCCN1c1cccc(Nc2ncc(Cl)c(NC3CCCC3)n2)c1 [Example 42]
2.18[b]	CC1(C)CN(c2cccc(Nc3ncc(Br)c(NC4CC4)n3)c2)C1=O [Example 52]
2.07[b]	CC1(C)CN(c2cccc(Nc3ncc(Cl)c(NC4CC4)n3)c2)C1=O [Example 53]
1.49[b]	CC(C)Nc1nc(Nc2ccc(N3CCOC3=O)cc2)ncc1Cl [Example 64]
1.54[b]	COCC(C)Nc1nc(Nc2cccc(N3CCOC3=O)c2)ncc1Cl (stereo not drawn) [Example 67]
1.61[b]	COCC(C)Nc1nc(Nc2cccc(N3CCOC3=O)c2)ncc1Br (stereo not drawn) [Example 69]
1.8[b]	O=C1OCCN1c1cccc(Nc2ncc(Br)c(NC3CCC3)n2)c1 [Example 72]
1.78[b]	CC1CC(=O)N(c2cccc(Nc3ncc(Br)c(NCC4CC4)n3)c2)C1=O (stereo not drawn) [Example 74]
1.63[b]	CN(c1cccc(N2CCCC2=O)c1)c1ncc(Cl)c(NC2CCC2)n1 [Example 83]
2.27[b]	O=C1OCC(c2ccccc2)N1c1cccc(Nc2ncc(Cl)c(NC3CC3)n2)c1 (stereo not drawn) [Example 88]
2.65[b]	O=C1OCC(c2ccccc2)N1c1cccc(Nc2ncc(Cl)c(NC3CCC3)n2)c1 (stereo not drawn) [Example 89]

log p	Structure (SMILES)
2.8[b]	O=C1OCC(c2ccccc2)N1c1cccc(Nc2ncc(Br)c(NC3CCC3)n2)c1 (stereo not drawn) [Example 90]
2.3[b]	O=C1OCC(c2ccccc2)N1c1cccc(Nc2ncc(Br)c(NC3CC3)n2)c1 (stereo not drawn) [Example 91]
2.38[b]	CC(C)[C@H]1COC(=O)N1c1cccc(Nc2ncc(Cl)c(NC3CCC3)n2)c1 [Example 100]
2.38[b]	CC(C)[C@@H]1COC(=O)N1c1cccc(Nc2ncc(Cl)c(NC3CCC3)n2)c1 [Example 101]
2.03[b]	C[C@@H]1COC(=O)N1c1cccc(Nc2ncc(Br)c(NC3CC3)n2)c1 [Example 104]
1.6[b]	Cc1ccc(Nc2ncc(Cl)c(NC3CCC3)n2)cc1N1CCOC1=O [Example 105]
2.17[b]	CC(C)[C@H]1COC(=O)N1c1cccc(Nc2ncc(Cl)c(NCC3CC3)n2)c1 [Example 109]
2.1[b]	CC(C)Nc1nc(Nc2cccc(N3C(=O)OC[C@@H]3C(C)C)c2)ncc1Cl [Example 110]
2.81[b]	CC(C)[C@H]1COC(=O)N1c1cccc(Nc2ncc(Cl)c(NCC(F)(F)F)n2)c1 [Example 111]
1.46[b]	CC(C)Nc1nc(Nc2cccc(N3CCCCC3=O)c2)ncc1Cl [Example 114]
1.64[b]	CC1COC(=O)N1c1cccc(Nc2ncc(Cl)c(NCC3CC3)n2)c1 (stereo not drawn) [Example 116]
2.1[b]	COCC(C)Nc1nc(Nc2cccc(N3C(=O)OC[C@@H]3C(C)C)c2)ncc1Cl (stereo partly drawn) [Example 117]
2.28[b]	CC(C)C1COC(=O)N1c1cccc(Nc2ncc(Br)c(NCC3CC3)n2)c1 (stereo not drawn) [Example 128]
2.24[b]	CC(C)Nc1nc(Nc2cccc(N3C(=O)OCC3C(C)C)c2)ncc1Br (stereo not drawn) [Example 129]
2.5[b]	CC(C)C1COC(=O)N1c1cccc(Nc2ncc(Br)c(NCC(F)F)n2)c1 (stereo not drawn) [Example 130]
2.02[b]	CC1(C)CC(=O)N(c2cccc(Nc3ncc(Br)c(NCC4CC4)n3)c2)C1=O [Example 132]
1.77[b]	CC1CCC(=O)N1c1cccc(Nc2ncc(Br)c(NCC3CC3)n2)c1 (stereo not drawn) [Example 133]
1.57[b]	CC(C)Nc1nc(Nc2cccc(N3CCCCC3=O)c2)ncc1Br [Example 134]
1.75[b]	O=C1CCCCN1c1cccc(Nc2ncc(Br)c(NCC(F)F)n2)c1 [Example 135]
1.61[b]	CC(C)Nc1nc(Nc2ccc(N3C(=O)OCC3C)cc2)ncc1Cl (stereo not drawn) [Example 142]

log p	Structure (SMILES)
1.41[b]	CC(C)Nc1nc(Nc2cccc(N3CCOCC3=O)c2)ncc1Cl [Example 143]
1.68[b]	CC(C)Nc1nc(Nc2ccc(N3C(=O)OCC3C)cc2)ncc1Br (stereo not drawn) [Example 150]
1.47[b]	CC(C)Nc1nc(Nc2cccc(N3CCOCC3=O)c2)ncc1Br [Example 151]
1.63[b]	O=C1OCCN1c1cccc(Nc2ncc(Cl)c(NCC(F)F)n2)c1 [Example 154]
1.81[b]	CC1COC(=O)N1c1cccc(Nc2ncc(Cl)c(NCC(F)F)n2)c1 (stereo not drawn) [Example 155]
1.68[b]	CC1COC(=O)N1c1ccc(Nc2ncc(Cl)c(NCC(F)F)n2)cc1 (stereo not drawn) [Example 158]
1.46[b]	O=C1COCCN1c1cccc(Nc2ncc(Cl)c(NCC(F)F)n2)c1 [Example 159]
1.81[b]	CC1CCC(=O)N1c1cccc(Nc2ncc(Cl)c(NCC(F)F)n2)c1 (stereo not drawn) [Example 160]
1.68[b]	CC1CC(=O)N(c2cccc(Nc3ncc(Cl)c(NCC(F)F)n3)c2)C1=O (stereo not drawn) [Example 161]
1.71[b]	O=C1OCCN1c1cccc(Nc2ncc(Br)c(NCC(F)F)n2)c1 [Example 162]
1.88[b]	CC1COC(=O)N1c1cccc(Nc2ncc(Br)c(NCC(F)F)n2)c1 (stereo not drawn) [Example 163]
1.78[b]	CC1COC(=O)N1c1ccc(Nc2ncc(Br)c(NCC(F)F)n2)cc1 (stereo not drawn) [Example 165]
1.51[b]	O=C1COCCN1c1cccc(Nc2ncc(Br)c(NCC(F)F)n2)c1 [Example 166]
1.91[b]	CC1CCC(=O)N1c1cccc(Nc2ncc(Br)c(NCC(F)F)n2)c1 (stereo not drawn) [Example 167]
1.78[b]	CC1CC(=O)N(c2cccc(Nc3ncc(Br)c(NCC(F)F)n3)c2)C1=O (stereo not drawn) [Example 168]
2.36[b]	CC1(C)CC(=O)N(c2cccc(Nc3ncc(Cl)c(NCC(F)(F)F)n3)c2)C1=O [Example 170]
2.51[b]	CC1CC(C)N(c2cccc(Nc3ncc(Cl)c(NCC(F)(F)F)n3)c2)C1=O (stereo not drawn) [Example 171]
2.06[b]	CC1COC(=O)N1c1ccc(Nc2ncc(Cl)c(NCC(F)(F)F)n2)cc1 (stereo not drawn) [Example 172]

Structure (SMILES)	log p
COCC(C)Nc1nc(Nc2cccc(N3CCCC3=O)c2)ncc1Br (stereo not drawn) [Example 5]	1.6[b]
CC1CCC(=O)N1c1cccc(Nc2ncc(Cl)c(NC3CCC3)n2)c1 (stereo not drawn) [Example 37]	1.83[b]
CC1CC(=O)N(c2cccc(Nc3ncc(Br)c(NC4CC4)n3)c2)C1=O (stereo not drawn) [Example 66]	1.78[b]
COCC(C)Nc1nc(Nc2cccc(N3C(=O)CC(C)C3=O)c2)ncc1Cl (stereo not drawn) [Example 68]	1.59[b]
COCC(C)Nc1nc(Nc2cccc(N3C(=O)CC(C)C3=O)c2)ncc1Br (stereo not drawn) [Example 70]	1.68[b]
CC1CC(=O)N(c2cccc(Nc3ncc(Cl)c(NCC4CC4)n3)c2)C1=O (stereo not drawn) [Example 71]	1.68[b]
CC(C)[C@@H]1COC(=O)N1c1cccc(Nc2ncc(Cl)c(NC3CC3)n2)c1 [Example 75]	2.39[b]
CC1CC(C)N(c2cccc(Nc3ncc(Cl)c(NC4CCC4)n3)c2)C1=O (stereo not drawn) [Example 80]	2.2[b]
CC1CC(C)N(c2cccc(Nc3ncc(Br)c(NC4CCC4)n3)c2)C1=O (stereo not drawn) [Example 85]	2.3[b]
C[C@H]1COC(=O)N1c1cccc(Nc2ncc(Cl)c(NC3CCC3)n2)c1 [Example 93]	1.82[b]
C[C@H]1COC(=O)N1c1cccc(Nc2ncc(Br)c(NC3CC3)n2)c1 [Example 95]	1.65[b]
CC1CC(=O)N(c2cccc(Nc3ncc(Cl)c(NC4CC4)n3)c2)C1 (stereo not drawn) [Example 96]	1.75[b]
CC1CC(=O)N(c2cccc(Nc3ncc(Cl)c(NC4CCC4)n3)c2)C1 (stereo not drawn) [Example 97]	2.02[b]
CC1CC(=O)N(c2cccc(Nc3ncc(Br)c(NC4CCC4)n3)c2)C1 (stereo not drawn) [Example 98]	2.16[b]
CC(C)[C@H]1COC(=O)N1c1cccc(Nc2ncc(Cl)c(NCC(F)F)n2)c1 [Example 112]	2.39[b]
CC1CCN(c2cccc(Nc3ncc(Cl)c(NC4CCC4)n3)c2)C1=O (stereo not drawn) [Example 113]	2.01[b]
CC(C)Nc1nc(Nc2cccc(N3C(=O)CCC3C)c2)ncc1Cl (stereo not drawn) [Example 144]	1.66[b]
CC(C)Nc1nc(Nc2cccc(N3C(=O)CC(C)C3=O)c2)ncc1Cl (stereo not drawn) [Example 145]	1.59[b]
CC(C)Nc1nc(Nc2cccc(N3C(=O)OCC3C)c2)ncc1Br (stereo not drawn) [Example 147]	1.73[b]
CC(C)Nc1nc(Nc2cccc(N3C(=O)CC(C)(C)C3=O)c2)ncc1Br [Example 148]	1.93[b]
CC(C)Nc1nc(Nc2cccc(N3C(=O)C(C)CC3C)c2)ncc1Br (stereo not drawn) [Example 149]	1.98[b]
CC(C)Nc1nc(Nc2cccc(N3C(=O)CCC3C)c2)ncc1Br (stereo not drawn) [Example 152]	1.73[b]
CC(C)Nc1nc(Nc2cccc(N3C(=O)CC(C)C3=O)c2)ncc1Br (stereo not drawn) [Example 153]	1.68[b]
CC1(C)CC(=O)N(c2cccc(Nc3ncc(Cl)c(NCC(F)F)n3)c2)C1=O [Example 156]	2.01[b]
CC1CC(C)N(c2cccc(Nc3ncc(Cl)c(NCC(F)F)n3)c2)C1=O (stereo not drawn) [Example 157]	2.11[b]
CC1(C)CC(=O)N(c2cccc(Nc3ncc(Br)c(NCC(F)F)n3)c2)C1=O [Example 164]	2.08[b]
